Holding throughout (format): cell-based
Experiment [1] concerns Staphylococcus aureus FDA 209P JC-1. Description: Antibacterial activity (MIC), S. aureus FDA 209P JC-1. Particulars: Staphylococcus aureus, FDA209P, read-out: Minimum inhibitory concentration (MIC). On the procedure: (§1) The compounds of the present invention (A, C, D, E, F, G, H, I, J, L, O and P) and the known compound (X) as reference were dissolved in 0.1 N aqueous sodium hydroxide to prepare a solution of 5000 μg/ml in concentration. The compounds of the present invention (B, K, M and N) and the known compound (Y) were dissolved in sterilized distilled water to prepare a solution of 5000 μg/ml in concentration. Each solution was diluted with sterilized distilled water to prepare a standard solution with a concentration of each test compound: 1000 μg/ml. The test was carried out by a method as appointed by Japan Society of Chemotherapy [cf. Chemotherapy, 29, 76-79 (1981)(TOKYO)].

Experiment [2] concerns Staphylococcus aureus IID 803. As to the kind of experiment: Antibacterial activity (MIC), S. aureus IID 803. The following applies: Staphylococcus aureus, IID803, read-out: Minimum inhibitory concentration (MIC). On the procedure:
as §1

Experiment [3] has as its system Staphylococcus epidermidis IAM-1296. As to the kind of experiment: Antibacterial activity (MIC), S. epidermidis IAM-1296. Particulars: Staphylococcus epidermidis. On the procedure:
as §1

In experiment [4] the test system is Streptococcus faecalis IID 682. Description: Antibacterial activity (MIC), Streptococcus faecalis IID 682. The following applies: for MIC: Enterococcus faecalis, IID682, Streptococcus faecalis IID 682, Gram +, read-out: Minimum inhibitory concentration (MIC). On the procedure:
as §1

Experiment [5] has as its system Bacillus subtilis ATCC 6633. Description: Antibacterial activity (MIC), Bacillus subtilis ATCC 6633. The following applies: Bacillus subtilis, ATCC6633, Bacillus subtilis ATCC 6633, Gram +; read-out: Minimum inhibitory concentration (MIC). How it is done: as §1
Experiment [6] concerns Micrococcus luteus ATCC 9341. As to the kind of experiment: Antibacterial activity (MIC), Micrococcus luteus ATCC 9341. Particulars: ATCC9341; Micrococcus luteus ATCC 9341, Gram +; read-out: Minimum inhibitory concentration (MIC). How it is done:
as §1

Experiment [7] relates to Escherichia coli NIHJ JC-2. Description: Antibacterial activity (MIC), E. coli NIHJ JC-2. On the procedure: as §1
The next experiment has as its system Escherichia coli KC-14. Description: Antibacterial activity (MIC), E. coli KC-14. On the procedure:
as §1

Experiment [8] relates to Klebsiella pneumoniae PCI-602. Description: Antibacterial activity (MIC), Klebsiella pneumoniae PCI-602. Particulars: PCI602; Klebsiella pneumoniae PCI-602, Gram -; read-out: Minimum inhibitory concentration (MIC). On the procedure:
as §1

Experiment [9] relates to Salmonella typhimurium IID 971. As to the kind of experiment: Antibacterial activity (MIC), Salmonella typhimurium IID 971. Particulars: Salmonella enterica, read-out: Minimum inhibitory concentration (MIC). How it is done:
as §1

In another experiment the test system is Shigella sonnei EW-33. Description: Antibacterial activity (MIC), Shigella sonnei EW-33. Particulars: Shigella sonnei, EW33, Shigella sonnei EW-33, Gram -; read-out: Minimum inhibitory concentration (MIC). How it is done:
as §1

For experiment [10], the system named is Serratia marcescens IAM 1184. As to the kind of experiment: Antibacterial activity (MIC), Serratia marcescens IAM 1184. Particulars: Serratia marcescens, IAM1184, Serratia marcescens IAM 1184, Gram -; read-out: Minimum inhibitory concentration (MIC). How it is done: as §1
Experiment [11] relates to Pseudomonas aeruginosa IFO 3445. Description: Antibacterial activity (MIC), P. aeruginosa IFO 3445. Particulars: Pseudomonas aeruginosa, IFO3445, Pseudomonas aeruginosa IFO 3445, Gram -; read-out: Minimum inhibitory concentration (MIC). On the procedure: as §1
Experiment [12] concerns Pseudomonas aeruginosa NCTC 10490. As to the kind of experiment: Antibacterial activity (MIC), P. aeruginosa NCTC 10490. The following applies: Pseudomonas aeruginosa, NCTC10490, Pseudomonas aeruginosa NCTC 10490, Gram -; read-out: Minimum inhibitory concentration (MIC). How it is done:
as §1

Experiment [13] deals with Pseudomonas aeruginosa E-2. Description: Antibacterial activity (MIC), P. aeruginosa E-2. Particulars: E2; Pseudomonas aeruginosa E-2, Gram -; read-out: Minimum inhibitory concentration (MIC). How it is done: as §1
The test system of experiment [14] is Morganella morganii IFO 3848. Description: Antibacterial activity (MIC), Morganella morganii IFO 3848. The following applies: for MIC: Morganella morganii, IFO3848, Morganella morganii IFO 3848, Gram -, read-out: Minimum inhibitory concentration (MIC). How it is done:
as §1

The next experiment has as its system Proteus vulgaris OX-19. Description: Antibacterial activity (MIC), Proteus vulgaris OX-19. On the procedure:
as §1

The test system of experiment [15] is Proteus mirabilis IFO 3849. Description: Antibacterial activity (MIC), Proteus mirabilis IFO 3849. Particulars: IFO3849; Proteus mirabilis IFO 3849, Gram -; read-out: Minimum inhibitory concentration (MIC). On the procedure: as §1
For experiment [16], the system named is Enterobacter aerogenes ATCC 13048. As to the kind of experiment: Antibacterial activity (MIC), Enterobacter aerogenes ATCC 13048. Particulars: Klebsiella aerogenes. On the procedure: as §1
For the next experiment, the system named is Enterobacter cloacae 963. As to the kind of experiment: Antibacterial activity (MIC), Enterobacter cloacae 963. On the procedure:
as §1

The test system of experiment [17] is Citrobacter freundii NIHJ 10018-68. As to the kind of experiment: Antibacterial activity (MIC), Citrobacter freundii NIHJ 10018-68. Particulars: Citrobacter freundii, NIHJ10018, Citrobacter freundii NIHJ 10018-68, Gram -; read-out: Minimum inhibitory concentration (MIC). How it is done:
as §1

Experiment [18] deals with Acinetobacter calcoaceticus AC 54. Description: Antibacterial activity (MIC), Acinetobacter calcoaceticus AC 54. Particulars: AC54; Acinetobacter calcoaceticus AC 54, Gram -; read-out: Minimum inhibitory concentration (MIC). On the procedure: as §1
[19] abbreviates: Escherichia coli, KC14, read-out: Minimum inhibitory concentration (MIC).
Where [20] appears, read: Salmonella typhimurium IID 971, Gram -.

Values after ≈ are worked out from the molar mass of the structure shown. Where a name gives a salt, the structure may show the parent alone. Read-outs that look alike come from different tables or passages of the source.

On to `CC1CN(c2c(F)cc3c(=O)c(C(=O)O)c4scc5n4c3c2N(C)C5)CCN1` (stereo not shown) [Compound (D), 9,1-(Methylimino)methano-7-fluoro-8-(3-methyl-1-piperazinyl)-5-oxo-5H-thiazolo[3,2-a]quinoline-4-carboxylic acid], for which the MIC in experiment [1] worked out at 0.05 µg/mL (≈ 0.124 µM); in [2] it was 0.05 µg/mL (≈ 0.124 µM); in [3] (IAM1296, read-out: Minimum inhibitory concentration (MIC)), 0.05 µg/mL (≈ 0.124 µM); in [4], 0.1 µg/mL (≈ 0.248 µM); in [5], 0.006 µg/mL (≈ 0.0149 µM); in [6], 0.39 µg/mL (≈ 0.969 µM). The MIC in experiment [7] (Escherichia coli, NIHJJC2, read-out: Minimum inhibitory concentration (MIC)) was found to be 0.05 µg/mL (≈ 0.124 µM); in the experiment with Escherichia coli KC-14 (setting [19]), 0.05 µg/mL (≈ 0.124 µM); in [8] it was 0.006 µg/mL (≈ 0.0149 µM); in [9], 0.05 µg/mL (≈ 0.124 µM); with Shigella sonnei EW-33 it was 0.05 µg/mL (≈ 0.124 µM); in [10] it was 0.39 µg/mL (≈ 0.969 µM). In addition, the MIC in experiment [11] amounted to 0.78 µg/mL (≈ 1.94 µM); in experiment [12] it was 0.39 µg/mL (≈ 0.969 µM); in experiment [13], 0.78 µg/mL (≈ 1.94 µM); in experiment [14], 0.1 µg/mL (≈ 0.248 µM); in the experiment on Proteus vulgaris OX-19 (OX19, Proteus vulgaris OX-19, Gram -, read-out: Minimum inhibitory concentration (MIC)) it was 0.006 µg/mL (≈ 0.0149 µM); in [15], 0.2 µg/mL (≈ 0.497 µM). The MIC in experiment [16] (ATCC13048, read-out: Minimum inhibitory concentration (MIC)) was 0.05 µg/mL (≈ 0.124 µM); in the experiment with Enterobacter cloacae 963 (Enterobacter cloacae, 963, read-out: Minimum inhibitory concentration (MIC)) it was 0.05 µg/mL (≈ 0.124 µM); in experiment [17], 0.39 µg/mL (≈ 0.969 µM); in experiment [18] it was 0.025 µg/mL (≈ 0.0621 µM).

Regarding `CC1CN(c2c(F)cc3c(=O)c(C(=O)O)c4scc5n4c3c2N(C)C5)CC(C)N1` (stereo not shown) [Compound (E), 9,1-(Methylimino)methano-7-fluoro-8-(3,5-dimethyl-1-piperazinyl)-5-oxo-5H-thiazolo[3,2-a]-quinoline-4-carboxylic acid], the MIC in [1] came to 0.05 µg/mL (≈ 0.12 µM); in experiment [2], 0.05 µg/mL (≈ 0.12 µM); in experiment [3] (IAM1296, Staphylococcus epidermidis IAM-1296, Gram +, read-out: Minimum inhibitory concentration (MIC)), 0.1 µg/mL (≈ 0.24 µM); in experiment [4], 0.2 µg/mL (≈ 0.48 µM); in experiment [5], 0.025 µg/mL (≈ 0.06 µM); in experiment [6], 0.39 µg/mL (≈ 0.936 µM). The MIC was 0.1 µg/mL (≈ 0.24 µM) in [7] (NIHJJC2, Escherichia coli NIHJ JC-2, Gram -, read-out: Minimum inhibitory concentration (MIC)); 0.05 µg/mL (≈ 0.12 µM) with Escherichia coli KC-14 (setting [19]); 0.006 µg/mL (≈ 0.0144 µM) in [8]; 0.1 µg/mL (≈ 0.24 µM) in [9] (setting [20]); 0.05 µg/mL (≈ 0.12 µM) in the experiment with Shigella sonnei EW-33; 0.78 µg/mL (≈ 1.87 µM) in experiment [10]. The MIC in [11] came to 1.56 µg/mL (≈ 3.75 µM); in experiment [12], 0.39 µg/mL (≈ 0.936 µM); in experiment [13] it was 1.56 µg/mL (≈ 3.75 µM); in experiment [14], 0.39 µg/mL (≈ 0.936 µM); in the experiment on Proteus vulgaris OX-19 (Proteus vulgaris, OX19, read-out: Minimum inhibitory concentration (MIC)) it was 0.05 µg/mL (≈ 0.12 µM); in experiment [15], 0.78 µg/mL (≈ 1.87 µM). The MIC in experiment [16] (ATCC13048, Enterobacter aerogenes ATCC 13048, Gram -, read-out: Minimum inhibitory concentration (MIC)) is 0.2 µg/mL (≈ 0.48 µM); in the experiment with Enterobacter cloacae 963 (Enterobacter cloacae, 963, Enterobacter cloacae 963, Gram -, read-out: Minimum inhibitory concentration (MIC)) it was 0.2 µg/mL (≈ 0.48 µM); in [17] it was 1.56 µg/mL (≈ 3.75 µM); in experiment [18] it was 0.025 µg/mL (≈ 0.06 µM).

Take `CCN1CCN(c2c(F)cc3c(=O)c(C(=O)O)c4scc5n4c3c2N(C)C5)CC1` [Compound (K), 9,1-(Methylimino)methano-7-fluoro-8-(4-ethyl-1-piperazinyl)-5-oxo-5H-thiazolo[3,2-a]quinoline-4-carboxylic acid hydrochloride]: the “Minimum inhibitory concentration (MIC)” value in experiment [4] (Streptococcus faecalis IID 682, Gram +, hydrochloride) came out at 0.20 µg/mL; in [14] (Morganella morganii IFO 3848, Gram -, hydrochloride) it was 0.20 µg/mL. For the same compound, the MIC is 0.05 µg/mL with Escherichia coli KC-14 (KC14, Escherichia coli KC-14, Gram -, read-out: Minimum inhibitory concentration (MIC)); 0.05 µg/mL in [9] (setting [20]); 0.05 µg/mL in [18].

(Values after US4971967A, “Quinolinecarboxylic acid derivatives, antibacterial compositions and use” (Kanebo Ltd, priority 1989, dated 1990).)
